The results in this text go back to patent publication US10376577B2, “Refined product obtained from rice hull and preparation process and use thereof” (China Medical University, priority 2014, dated 2019).

This data set has as its system CT26 cells. Briefly: Synergistic anticancer effect of refined product and 5-FU on colon carcinoma cells. The conditions noted are these: BALB/c mice with subcutaneous CT26, end of 3rd week, treatments per Table 8, mean ± S.D. The data set is classed as in vivo, mouse. The text has this: The male BALB/c mice were randomly divided into the following groups (n=8 for each group): a normal control group, a pathological control group, a 5-FU group, and a synergy group. 1×10^6 CT26 cells were subcutaneously injected into the leg of each mouse in the pathological control group, the 5-FU group, and the synergy group. The mice in the normal control group received no CT26 cells.
After the injection of CT26 cells, the mice in the 5-FU group, the synergy group, and the pathological control group were subjected to the treatments shown in Table 8 until the end of the 3rd week after the injection of CT26 cells. The mice in the normal control group received no treatment.
At the end of the 3rd week after the injection of CT26 cells, the mice in each group were anesthetized using CO2, and blood was collected from the celiac vein. The blood collected was subjected to total white blood cell counting using an automated hematology analyzer (Sysmex, KX-21 N). Besides, tumors were collected and weighted.

In the case of `O=c1[nH]cc(F)c(=O)[nH]1` [5-FU, 5-fluorouracil], under “pathological control 4.10 ± 0.92”, the Tumor weight is on record as 3.19 ± 1.47. The “Number of total white blood cells” value (pathological control 6.59 ± 1.46) came to 4.46 ± 0.77.
